Legend:
[1] = target: T1, homomeric GluK1-2b kainate receptor (Rattus norvegicus, UniProt P22756); experiment: Whole-cell patch clamp of recombinant GluK1-2b receptors in HEK293-T/17 cells; type: cell-based; conditions: 30 μM; 10 mM glutamate
T1 construct: myc; expressed in transfected cells; host or cells: HEK293-T/17 (CRL-11268)
Description: Cell Culture and Transfection. Human embryonic kidney cells expressing T-antigen, clone 17 (HEK293-T/17) (CRL-11268) were cultured at 37° C. with 5% CO2 in DMEM, including 100 μg/mL penicillin, 100 μg/mL streptomycin, and 10% heat-inactivated fetal bovine serum. Cells were split twice per week. For transfection, HEK293-T/17 cells were plated at 3×10^4 cells/cm^2 for pharmacology experiments and 5×10^3 cells/cm^2 for physiology experiments in fresh medium 24 h prior to transfection. Cells were transfected with AMPA or KA receptor plasmid cDNAs using Mirus Trans-IT transfection reagent (Minus Bio Corporation, Madison, Wis.) at a ratio of 1 μg cDNA: 3 μL Trans-1T reagent and maintained in transfection medium overnight followed by a media change the next day. Transfected cells were maintained in this medium until the experiment was conducted (48-72 h total post transfection).
Electrophysiology. For analysis of recombinant receptors, HEK293-T/17 cells were co-transfected with 0.2 μg of iGluR cDNA and 0.05 μg of eGFP. For heterologous GluA1/GluA2 receptors, the GluA1:GluA2 cDNA ratio was 1:6. Two to three days post-transfection, eGFP-expressing cells were lifted from the cover slip and voltage clamped in whole cell mode. […]

[2] = system: AMPA receptor EPSCs, CA1 pyramidal neurons; experiment: AMPA receptor EPSCs at Schaffer collateral-CA1 synapses, acute hippocampal slices; type: cell-based, mouse; conditions: 20 μM
Description: (§1) For recordings from acute hippocampal slices, brains from P15-21 C57Bl/6 mice were sliced transversely (350 μm thickness) in a sucrose slicing solution containing (in mM) 85 NACl, 2.5 KCl, 1.25 NaH2PO4, 25 NaHCO3, 25 glucose, 75 sucrose, 0.5 CaCl2, 4 MgCl2, 0.5 Na ascorbate, 10 μM DL-APV and 100 μM kynurenic acid (pH 7.3). After slicing, the solution was exchanged with an incubation solution containing (in mM) 125 NaCl, 2.4 KCl, 1.2 NaH2PO4, 25 NaHCO3, 25 glucose: 1 CaCl2, 2 MgCl2, 0.5 Na ascorbate, 10 μM DL-APV and 100 μM kynurenic acid (pH 7.3) that was bubbled continuously with CO2-balanced O2 (carbogen). […] Recordings in voltage clamp mode used the CsF/CsCl internal solution and carbogenated external recording solution containing (in mM) 120 NaCl, 2.4 KCl, 2 MgCl2, 1 CaCl2, 25 NaHCO3, 1.2 NaH2PO4, 25 glucose, 10 μM bicuculline methiodide, 50 μM PTX and 50 μM D-APV (pH 7.3). […] NMDA EPSCs were validated by addition of D-APV (50 μM) at the end of each recording. Hippocampal CA1 or CA3 pyramidal cells were voltage clamped at −70 mV and stimulated with a monopolar electrode either the stratum radiatum or stratum lucidum, respectively. IKM compounds were applied for 10 minutes and changes in the peak amplitudes of excitatory post-synaptic currents (EPSCs) and paired-pulse ratios were analyzed during the last two minutes of drug application. EPSC charge transfer, AP frequency, paired-pulse ratio and EPSC peak amplitude were analyzed with Mini-Analysis v6.03 (Synaptosoft, Decatur, Ga.) and Clampfit v10.0 (MDS, Sunnyvale, Calif.) software.

[3] = system: NMDA receptor-mediated EPSCs, CA1 pyramidal cells; experiment: NMDA receptor EPSCs at Schaffer collateral-CA1 synapses, acute hippocampal slices; type: cell-based, mouse; conditions: 20 μM; 5 min treatment
Description: as §1, with “IKM compounds were applied for 10 minutes and changes in the peak amplitudes of excitatory post-synaptic currents (EPSCs) and paired-pulse ratios were analyzed during the last two minutes of drug application.” left out

T1 sequence (P22756 31-905 isoform P22756-2 limits assumed): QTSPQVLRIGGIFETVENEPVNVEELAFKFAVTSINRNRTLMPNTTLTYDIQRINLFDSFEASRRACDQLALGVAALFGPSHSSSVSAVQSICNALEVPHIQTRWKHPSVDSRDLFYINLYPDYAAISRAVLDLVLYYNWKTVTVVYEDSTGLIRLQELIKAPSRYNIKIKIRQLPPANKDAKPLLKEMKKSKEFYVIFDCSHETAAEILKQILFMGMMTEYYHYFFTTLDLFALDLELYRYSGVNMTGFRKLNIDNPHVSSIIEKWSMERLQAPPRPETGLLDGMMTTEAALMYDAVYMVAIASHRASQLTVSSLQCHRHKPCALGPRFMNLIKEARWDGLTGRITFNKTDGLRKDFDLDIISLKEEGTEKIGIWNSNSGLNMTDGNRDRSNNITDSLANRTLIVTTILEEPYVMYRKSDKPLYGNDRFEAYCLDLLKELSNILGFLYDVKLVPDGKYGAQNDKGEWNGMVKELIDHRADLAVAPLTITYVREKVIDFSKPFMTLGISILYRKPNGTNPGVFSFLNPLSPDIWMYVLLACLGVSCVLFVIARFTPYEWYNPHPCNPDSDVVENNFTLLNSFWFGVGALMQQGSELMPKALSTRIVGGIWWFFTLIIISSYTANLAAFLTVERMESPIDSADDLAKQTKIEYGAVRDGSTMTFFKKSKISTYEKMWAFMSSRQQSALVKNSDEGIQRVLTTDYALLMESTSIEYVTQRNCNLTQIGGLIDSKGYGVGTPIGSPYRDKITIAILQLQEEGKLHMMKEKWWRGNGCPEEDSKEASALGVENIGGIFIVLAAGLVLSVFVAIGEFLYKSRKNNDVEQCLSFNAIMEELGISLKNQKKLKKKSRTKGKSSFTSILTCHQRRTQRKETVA

SMILES: O=C(O)C[C@@]12O[C@H]3C=CCN[C@H]3C1CN[C@H]2C(=O)O (stereo partly drawn) [IKM-159]
- GluK1-2b peak amplitude as percent of basal peak glutamate current [1]: 90±10%
- AMPA EPSC peak amplitude as percent of control peak amplitude [2]: 66±5%
- reduction of mean amplitude of AMPA receptor EPSCs [2]: 34±5%
- time synaptic amplitudes remained depressed after application [2]: > 10 min
- mean AMPA receptor EPSC amplitude in presence of compound ([2]; control 560±20 pA): 370±40 pA
- NMDA receptor-mediated EPSC amplitude, % of control amplitudes [3]: 99±3%
